Data as given in ChEMBL document CHEMBL5674884, “Ezh2 inhibition in Kras-driven lung cancer amplifies inflammation and associated vulnerabilities” (J Exp Med, 2018).
Calls of active or inactive are those of the source.

Legend:
Format in all cases: functional, cell-based
[1] = tested on: A549; experiment: Reversal of GSK126 dependent antiinflammatory activity in human A549 cells assessed as decrease in Irak1 level by qRT-PCR analysis
[2] = tested on: A549; experiment: Reversal of GSK126 dependent antiinflammatory activity in human A549 cells assessed as decrease in Ccl2 level by qRT-PCR analysis
[3] = tested on: A549; experiment: Reversal of GSK126 dependent antiinflammatory activity in human A549 cells assessed as decrease in Il1ra level by qRT-PCR analysis
[4] = tested on: A549; experiment: Reversal of GSK126 dependent antiinflammatory activity in human A549 cells assessed as decrease in IL-6 level by qRT-PCR analysis

Measured: Activity

CC(C)(C)c1cnc(CSc2cnc(NC(=O)C3CCNCC3)s2)o1
active: [1] | [2] | [3] | [4]
